Values joined by “and” are separate entries in the source; they are usually repeats but may differ in a detail not shown here. Equal values may be shown once. Active and inactive are the calls of the source.
How the values were obtained:
[1] = cytotoxicity toward DRD oncogenic fibroblasts, dose response, cell-based, non-viral oncogenic, luminescence (AID 1934); type: functional; conditions: Homo sapiens
[2] = molecular target: Protein-tyrosine kinase 2-beta (Homo sapiens, UniProt Q14289);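 note: potency of inhibitors of PYK2 kinase phosphorylation of poly-GT substrate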
Sequence of Protein-tyrosine kinase 2-beta (Q14289 whole entry): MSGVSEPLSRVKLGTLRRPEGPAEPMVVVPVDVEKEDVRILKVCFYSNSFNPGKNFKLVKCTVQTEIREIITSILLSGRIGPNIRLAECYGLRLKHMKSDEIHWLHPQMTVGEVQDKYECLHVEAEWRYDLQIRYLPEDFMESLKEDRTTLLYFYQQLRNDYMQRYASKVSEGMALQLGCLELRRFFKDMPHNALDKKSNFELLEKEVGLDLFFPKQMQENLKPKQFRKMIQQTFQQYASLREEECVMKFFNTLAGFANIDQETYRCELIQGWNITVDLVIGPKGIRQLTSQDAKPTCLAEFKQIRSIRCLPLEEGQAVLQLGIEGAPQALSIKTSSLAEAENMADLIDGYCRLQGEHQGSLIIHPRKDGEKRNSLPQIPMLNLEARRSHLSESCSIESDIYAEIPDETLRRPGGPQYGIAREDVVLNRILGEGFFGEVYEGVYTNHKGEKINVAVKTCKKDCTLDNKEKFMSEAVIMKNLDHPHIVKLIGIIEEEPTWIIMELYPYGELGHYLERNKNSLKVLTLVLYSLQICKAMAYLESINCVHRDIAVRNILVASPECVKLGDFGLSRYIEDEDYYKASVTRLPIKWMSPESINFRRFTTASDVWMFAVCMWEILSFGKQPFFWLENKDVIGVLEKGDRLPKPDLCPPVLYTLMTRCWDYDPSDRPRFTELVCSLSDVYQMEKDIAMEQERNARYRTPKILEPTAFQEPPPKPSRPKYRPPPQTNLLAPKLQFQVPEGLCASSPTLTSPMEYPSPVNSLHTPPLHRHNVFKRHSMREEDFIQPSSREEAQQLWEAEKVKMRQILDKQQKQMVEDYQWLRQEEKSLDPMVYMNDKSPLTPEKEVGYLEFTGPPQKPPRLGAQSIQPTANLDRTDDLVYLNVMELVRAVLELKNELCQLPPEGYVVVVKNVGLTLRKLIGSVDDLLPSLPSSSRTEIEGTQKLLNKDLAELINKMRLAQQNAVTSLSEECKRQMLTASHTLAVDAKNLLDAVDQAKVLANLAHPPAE

[3] = growth suppression of beta-catenin-knockout colon cells, dose response, cell-based, HCT116, human colon tumor (AID 1045); type: functional;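 note: HCT116 colon tumor cells with beta catenin knocked out; cells exposed to compound for 60 hours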
[4] = molecular target: T1, Mannose-6-phosphate isomerase (Homo sapiens, UniProt P34949); assay: human PMI inhibitors, high substrate, primary screen, biochemical, fluorescence intensity, high mannose 6-phosphate (AID 1220)
T1 sequence (P34949 whole entry): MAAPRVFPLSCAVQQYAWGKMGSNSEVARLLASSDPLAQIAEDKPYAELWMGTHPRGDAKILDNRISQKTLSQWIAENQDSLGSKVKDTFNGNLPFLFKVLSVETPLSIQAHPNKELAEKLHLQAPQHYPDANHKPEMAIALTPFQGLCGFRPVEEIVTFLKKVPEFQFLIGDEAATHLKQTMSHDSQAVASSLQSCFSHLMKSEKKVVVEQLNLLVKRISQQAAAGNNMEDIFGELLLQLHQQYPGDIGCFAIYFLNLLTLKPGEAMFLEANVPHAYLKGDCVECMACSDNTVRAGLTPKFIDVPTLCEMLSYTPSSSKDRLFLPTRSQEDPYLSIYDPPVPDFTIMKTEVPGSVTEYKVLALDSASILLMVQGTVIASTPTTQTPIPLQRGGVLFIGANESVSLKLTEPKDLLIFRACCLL

[5] = molecular target: T2, Tyrosine-protein phosphatase non-receptor type 22 (Homo sapiens, UniProt Q9Y2R2); assay: LYP1 Fluorescent Assay using OMFP substrate for In Vitro dose response studies. [Related pubchem assays (depositor defined):AID1779, AID1784, AID435024]
T2 sequence (Q9Y2R2 whole entry): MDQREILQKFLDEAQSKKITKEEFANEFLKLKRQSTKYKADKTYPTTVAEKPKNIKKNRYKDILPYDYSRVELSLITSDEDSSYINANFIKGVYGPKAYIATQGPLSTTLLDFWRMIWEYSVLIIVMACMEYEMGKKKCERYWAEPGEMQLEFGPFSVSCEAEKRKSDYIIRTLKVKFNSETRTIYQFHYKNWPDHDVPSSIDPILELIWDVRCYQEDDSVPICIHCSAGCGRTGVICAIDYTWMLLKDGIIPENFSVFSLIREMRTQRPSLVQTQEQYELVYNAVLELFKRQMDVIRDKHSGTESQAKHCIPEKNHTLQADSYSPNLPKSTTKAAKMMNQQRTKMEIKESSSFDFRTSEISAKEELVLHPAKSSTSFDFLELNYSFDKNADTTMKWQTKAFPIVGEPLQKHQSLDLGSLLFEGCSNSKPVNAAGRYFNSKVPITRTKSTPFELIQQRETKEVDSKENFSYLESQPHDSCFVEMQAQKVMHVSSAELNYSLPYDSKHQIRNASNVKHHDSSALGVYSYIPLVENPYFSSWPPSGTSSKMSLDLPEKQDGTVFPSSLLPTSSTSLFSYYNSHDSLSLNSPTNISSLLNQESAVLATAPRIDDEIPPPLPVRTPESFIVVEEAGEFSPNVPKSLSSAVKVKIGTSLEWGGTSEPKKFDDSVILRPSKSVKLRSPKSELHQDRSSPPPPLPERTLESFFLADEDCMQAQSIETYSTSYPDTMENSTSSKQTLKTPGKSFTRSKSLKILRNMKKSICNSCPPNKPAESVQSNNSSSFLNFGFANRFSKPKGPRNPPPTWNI

[6] = molecular target: T3, Tyrosine-protein phosphatase non-receptor type 7 (Homo sapiens, UniProt P35236); assay: HePTP (PTPN7) phosphatase inhibitor potency, SAR follow-up, biochemical, set 2 (AID 449736); type: functional
T3 sequence (P35236 whole entry): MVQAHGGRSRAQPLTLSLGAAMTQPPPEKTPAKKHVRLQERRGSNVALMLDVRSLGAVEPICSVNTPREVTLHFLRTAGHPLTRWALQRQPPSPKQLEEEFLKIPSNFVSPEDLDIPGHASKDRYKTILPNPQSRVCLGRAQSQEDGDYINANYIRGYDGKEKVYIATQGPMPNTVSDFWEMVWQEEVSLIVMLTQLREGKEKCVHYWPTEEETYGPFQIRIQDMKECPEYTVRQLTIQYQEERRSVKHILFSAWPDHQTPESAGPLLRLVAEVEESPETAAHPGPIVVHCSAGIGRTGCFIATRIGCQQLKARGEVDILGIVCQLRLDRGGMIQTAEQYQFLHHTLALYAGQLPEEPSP

[7] = molecular target: T4, Tyrosine-protein phosphatase non-receptor type 12 (Homo sapiens, UniProt Q05209); assay: SAR Selectivity Analysis of small molecule inhibitors of PEST using pCAP in a fluorescence assay. [Related pubchem assays (depositor defined):AID1779, AID1784, AID2135]; type: functional
T4 sequence (Q05209 whole entry): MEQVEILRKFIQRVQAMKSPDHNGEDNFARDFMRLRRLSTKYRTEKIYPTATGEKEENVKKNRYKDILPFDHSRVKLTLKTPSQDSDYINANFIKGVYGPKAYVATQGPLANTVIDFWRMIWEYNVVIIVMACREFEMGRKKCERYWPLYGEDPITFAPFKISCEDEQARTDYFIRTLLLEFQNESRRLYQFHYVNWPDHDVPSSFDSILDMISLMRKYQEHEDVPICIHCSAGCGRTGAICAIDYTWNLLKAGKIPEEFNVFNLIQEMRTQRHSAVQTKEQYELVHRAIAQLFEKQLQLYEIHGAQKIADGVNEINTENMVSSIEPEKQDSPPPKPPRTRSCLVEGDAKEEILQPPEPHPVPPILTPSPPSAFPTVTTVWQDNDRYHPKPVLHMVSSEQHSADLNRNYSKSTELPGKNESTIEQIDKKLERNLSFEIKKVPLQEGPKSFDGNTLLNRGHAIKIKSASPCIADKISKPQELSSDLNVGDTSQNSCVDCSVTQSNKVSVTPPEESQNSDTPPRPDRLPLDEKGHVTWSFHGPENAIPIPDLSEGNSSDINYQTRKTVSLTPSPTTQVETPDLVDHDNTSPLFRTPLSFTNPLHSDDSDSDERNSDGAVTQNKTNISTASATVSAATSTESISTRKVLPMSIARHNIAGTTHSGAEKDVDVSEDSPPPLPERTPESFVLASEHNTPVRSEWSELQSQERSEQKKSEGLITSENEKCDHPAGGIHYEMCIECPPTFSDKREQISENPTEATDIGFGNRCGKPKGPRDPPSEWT

[8] = molecular target: T3, Tyrosine-protein phosphatase non-receptor type 7; assay: HTS HePTP Fluorescent Assay using OMFP substrate for In Vitro dose response studies. [Related pubchem assays (depositor defined):AID1059, AID1077, AID1784, AID2068, AID2085, AID435032, AID521]; type: functional

## CCN1/C(=C/c2ccc3cc(C)ccc3[n+]2CC)Sc2cc(C)c(C)cc21
[1]
  EC50: 1.43 µM (active)

## Cc1oc2c(c1C(=O)c1ccccc1)C(=O)C(=O)c1ccccc1-2
[2]
  IC50: > 69.5 µM (not active)
[3]
  EC50: 2.26 µM (active)
[4]
  IC50: > 50 µM (not active)

## O=C(O)COc1ccc(/C=N/NC(=O)c2ccc(-c3csc(Nc4ccc(Cl)cc4)n3)cc2)cc1
[5]
  IC50: > 99 µM (inactive)
[6]
  IC50: 0.193 µM (active)
[7]
  IC50: 334 nM (active) and 325 nM (active)
[8]
  IC50: > 99 µM (inactive)

— ChEMBL document CHEMBL1201862, “PubChem BioAssay data set” (2004)
